Data reported in US10603322B2, “Therapeutic targeting of casein kinase 1δ in breast cancer” (The Scripps Research Institute, priority 2015, dated 2020).

Columns and labels:
MDA-MB-231 TNBC cells = experiment: Cell proliferation / growth assay; type: cell-based, human
cancer cells = conditions: cited from earlier work
BCM-4013 PDX tumors = conditions: mouse, in vivo; cited from earlier work

## CC(C)(C)c1cc(NC(=O)Nc2ccc(-c3cn4c(n3)sc3cc(OCCN5CCOCC5)ccc34)cc2)no1 [AC220, reference compound]
MDA-MB-231 TNBC cells
  anti-proliferative activity: insensitive

## COc1cc(OC)c(C=C2C(O)=Nc3ccccc32)c(OC)c1 [IC261]
Cancer cells; not by inhibition of CK1δ/CK1ε
  mode of action: blocking tubulin function

## Nc1nccc(-c2c(-c3ccc(F)cc3)ncn2C2CCCCC2)n1 [PF670462]
Cancer cells
  anti-cancer activity: lacks anti-cancer activity

## CC(=O)O[C@@]12CO[C@@H]1C[C@H](O)[C@@]1(C)C(=O)[C@H](O)C3=C(C)[C@@H](OC(=O)[C@H](O)[C@@H](NC(=O)OC(C)(C)C)c4ccccc4)C[C@@](O)([C@@H](OC(=O)c4ccccc4)[C@H]21)C3(C)C [docetaxel]
BCM-4013 PDX tumors
  response of the BCM-4013 model to treatment: limited response
